The record followed here is patent EP0348713A1, “(R,S)-3-(4-phenyl-1-piperazinyl)-1,2-propanediol salts” (DOTT. FORMENTI S.P.A. INDUSTRIA CHIMICA E FARMACEUTICA, priority 1988, dated 1990).

The structures appear in SMILES notation. Structures can show the parent of a compound that is named as a salt.

A short description of the series: colour stability in pharmaceutical formulations (undesired colors due to degradation products). The conditions noted are these: particularly suppositories. Format: physicochemical. An excerpt: Said colors, due to degradation products, are evidenced also when using the hydrochloride, whereas they are completely removed when a salt according to the invention is used.

`OCC(O)CN1CCN(c2ccccc2)CC1` (stereo not shown) [hydrochloride]: the “undesired colors occuring in the long run” value is reported as “evidenced”.
